The subject of assay [1] is M receptors of the bronchial tubes. In words: Acetylcholine antagonism in anaesthetised guinea pigs: inhibition of bronchoconstriction. Conditions: for Ratio influence of bradycardia to bronchoconstriction: guinea pig, i.v., ratio heart (bradycardia) to bronchial tubes; for selectivity for smooth muscle: smooth muscle vs heart rate or saliva secretion. Type of assay: in vivo, guinea pig. The text has this:
(§1) The methods used had the aim of confirming the selectivity of the anti-muscarine effect. Any substances which had been selected on the basis of "in vitro" investigations were investigated for
(§2) 1. selectivity of the bronchospasmolytic activity in the guinea pig,
(§3) 1. Effect on M receptors of the bronchial tubes, the heart and the bladder of anaesthetised guinea pigs
(§4) Guinea pigs of both sexes (550-600 g body weight) were anaesthetised using urethane (1.4 g/kg intraperitoneally). A cannula was introduced into the augular vein to inject the active agents. 220 I.U./kg of heparin were injected intravenously. A cannula was introduced into the trachea; the animals were artificially respirated by means of a positive pressure pump (Braun-Melsungen) using oxygen-enriched air at a rate of 80 beats per minute. A branch of the tracheal cannula was connected to a water manometer 10 cm high. The respiration volume was set such that the maximum intratracheal pressure just reached the pressure of a 10 cm water column during respiration.
(§5) The values were recorded using an IFD recording apparatus. The trachea was clamped for a short time before the test to produce the maximum possible degree of bronchoconstriction for calibration. […] The heart rate was measured using a rate detector which is triggered by arterial pulse waves.
(§6) The active substances to be tested were injected via the jugular vein, 5 minutes later the increase in tone of the bladder (in grams) the bronchial resistance (in %) and the decrease in heart rate (beats per minute) were measured after administration of acetylcholine (50 μg/kg intravenously and intraarterially). Dosage-dependency graphs were drawn by plotting the percentage inhibition of bronchoconstriction, bradycardia and the increase in tone of the bladder against the logarithm of the dosage (mole/kg) of the active agents to be investigated. The results are given as average values (n=4-6).

The target in assay [2] is T1, M receptors of the bronchial tubes (Cavia porcellus, UniProt H0W1Z3).
T1 construct: Guinea pigs of both sexes (550-600 g body weight) were anaesthetised using urethane; from tissue; host or cells: bronchi of anaesthetised guinea pigs (in vivo)
T1 sequence (H0W1Z3 1-590): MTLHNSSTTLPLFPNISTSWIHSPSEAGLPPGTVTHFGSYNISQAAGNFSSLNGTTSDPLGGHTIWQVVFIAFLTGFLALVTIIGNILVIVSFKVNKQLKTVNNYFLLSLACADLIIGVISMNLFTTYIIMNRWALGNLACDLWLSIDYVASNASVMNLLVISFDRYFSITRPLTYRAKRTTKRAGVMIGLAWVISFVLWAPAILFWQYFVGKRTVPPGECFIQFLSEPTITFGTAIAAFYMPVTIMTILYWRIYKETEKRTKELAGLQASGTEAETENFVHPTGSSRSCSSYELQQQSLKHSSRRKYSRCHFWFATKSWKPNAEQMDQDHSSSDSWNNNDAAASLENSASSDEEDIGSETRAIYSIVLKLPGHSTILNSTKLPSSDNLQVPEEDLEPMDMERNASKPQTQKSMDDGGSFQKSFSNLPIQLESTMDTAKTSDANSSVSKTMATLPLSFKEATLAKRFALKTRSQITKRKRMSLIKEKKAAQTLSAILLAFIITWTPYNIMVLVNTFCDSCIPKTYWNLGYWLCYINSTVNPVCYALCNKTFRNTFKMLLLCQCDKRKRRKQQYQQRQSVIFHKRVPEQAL
The description is as above. Type of assay: in vivo, guinea pig. Conditions: iv, 5 min; guinea pig, i.v., acetylcholine antagonism, n=4-6; read-out: -log ED50 bronchial tubes (converted).
From the text: as §1, §2, §3, §4, §5, §6

The target in assay [3] is T2, M receptors of the bladder (Cavia porcellus, UniProt H0W1Z3).
T2 construct: the bladder was connected to a power transducer under a resting tension of 1 gram; from tissue; host or cells: urinary bladder of anaesthetised guinea pigs (in vivo)
T2 sequence (H0W1Z3 1-590): as above
In words: Acetylcholine antagonism in anaesthetised guinea pigs: inhibition of increase in tone of the bladder. It is filed as in vivo. Conditions: iv, 5 min, guinea pig, i.v., n=4-6, read-out: -log ED50 bladder (converted).
From the text: as §1, §3, §4
A small median abdominal incision was made and the bladder was connected to a power transducer under a resting tension of 1 gram.
as §6

Assay [4] concerns the target T3, M receptors of the heart (Cavia porcellus, UniProt H0VRN8).
T3 construct: from tissue; host or cells: heart of anaesthetised guinea pigs (in vivo)
T3 sequence (H0VRN8 1-466): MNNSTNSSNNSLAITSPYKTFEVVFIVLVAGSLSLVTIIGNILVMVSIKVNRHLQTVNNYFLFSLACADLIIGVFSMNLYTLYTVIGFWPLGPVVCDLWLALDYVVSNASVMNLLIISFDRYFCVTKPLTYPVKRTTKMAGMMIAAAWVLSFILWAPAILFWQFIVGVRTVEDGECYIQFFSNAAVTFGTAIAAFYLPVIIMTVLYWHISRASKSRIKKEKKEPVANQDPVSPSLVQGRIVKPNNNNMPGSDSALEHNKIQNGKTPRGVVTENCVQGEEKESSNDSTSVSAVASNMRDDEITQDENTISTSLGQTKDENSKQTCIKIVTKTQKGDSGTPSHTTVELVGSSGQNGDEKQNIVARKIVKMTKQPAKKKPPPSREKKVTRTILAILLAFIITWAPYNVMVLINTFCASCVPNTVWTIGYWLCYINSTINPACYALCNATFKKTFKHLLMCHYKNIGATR
In words: Acetylcholine antagonism in anaesthetised guinea pigs: inhibition of bradycardia. It is filed as in vivo, guinea pig. Conditions: iv, 5 min; guinea pig, i.v., acetylcholine antagonism (bradycardia), n=4-6; read-out: -log ED50 heart (converted).
From the text: as §1, §3, §4, §5, §6

Assay [5] addresses T4, muscarine receptors of the vestibule (Cavia porcellus, UniProt H0VRN8).
T4 construct: in the removed, spontaneously beating right vestibule; from tissue; host or cells: isolated spontaneously beating right atrium ('vestibule') of guinea pig
T4 sequence (H0VRN8 1-466): T3 sequence (H0VRN8 1-466)
Kind of assay: In vitro dissociation constant on spontaneously beating vestibule (heart), methacholine antagonism. It is filed as cell-based. The following applies: guinea pig spontaneously beating vestibule. The method, then:
(§7) Substances having anti-muscarine properties inhibit the effects of exogenically introduced agonists or of acetylcholine which is released from cholinergic nerve endings. A description of methods which are suitable for determining spasmolytically active anti-muscarine agents is given below.
(§8) Dissociation constants ([…]) were determined "in vitro" on the ileum and spontaneously beating vestibule of a guinea pig. The ileum was removed and incubated in an organ bath in Krebs- Henseleit solution. Contractions were induced by increasing concentrations of methacholine (M) such that complete concentration-activity graphs could be plotted. M was then washed out, the substance to be investigated was added and incubated for 30 minutes, and once again a concentration-activity graph was plotted using M.
The dissociation constant according to Arunlakshana and Schild (Brit. J. Pharmacol. 14; 48 (1959)) Was calculated from the dosage ratio (DR) which is the measure of the displacement of the concentration-activity graph.
M reduced the heart rate as a function of concentration in the removed, spontaneously beating right vestibule. This effect was cancelled again by adding an anti-muscarine agent. Dissociation constants for the muscarine receptors of the vestibule were obtained in the same manner as described above. The comparison of the dissociation constants determined in both tissues permitted the identification of selectively spasmolytically active substances.

The target in assay [6] is T5, muscarine receptors in the ileum (Cavia porcellus, UniProt H0W1Z3).
T5 construct: The ileum was removed and incubated in an organ bath; from tissue; host or cells: isolated ileum of guinea pig
T5 sequence (H0W1Z3 1-590): as the sequence (H0W1Z3 1-590) above
In words: In vitro dissociation constant on ileum, methacholine antagonism. Type of assay: cell-based, guinea pig. The following applies: guinea pig ileum. The method, then: as §7, §8
(§9) Dissociation constants for the muscarine receptors of the vestibule were obtained in the same manner as described above.

Assay [7] relates to muscarine receptors in the ileum. The description is as above. It is filed as cell-based, guinea pig. The following applies: guinea pig. The procedure: as §7, §8, §9
Another assay has as its system saliva secretion. Kind of assay: Saliva secretion-inhibiting effect in the rat (pilocarpine-triggered). Type of assay: in vivo. Conditions: iv, pilocarpine 2 mg/kg subcutaneous, 50% reduction of saliva volume, read-out: -log ED50 saliva secretion inhibition rat (converted). The procedure: as §1
2. saliva secretion-inhibiting effect in the rat, and
2. Saliva secretion-inhibitino effect in the rat
The secretion of saliva was triggered by subcutaneous administration of 2 mg/kg of pilocarpine. The saliva was absorbed using blotting paper, the surface taken up by it was determined planimetrically every 5 minutes. The dosage of the substance which reduced the volume of saliva by 50% was determined graphically.

The next assay concerns guinea pig ileum. Kind of assay: In situ spasmolytic effect in guinea pigs (methacholine-induced ileum contractions). Type of assay: in vivo. The following applies: i.v.; for ED50: Cavia porcellus, iv, 5 min, guinea pig, methacholine 20 μg/kg intraarterially, n=4 to 8, read-out: -log ED50 in situ spasmolysis guinea pig ileum (converted); for Ratio saliva secretion inhibition to spasmolytic activity: rat saliva secretion vs guinea pig ileum in situ.
From the text: as §1
3. in situ spasmolytic activity in the guinea pig.
3 In situ spasmolytic effect in guinea pigs
Male guinea pigs (500 to 600 g body weight) were anaesthetised using urethane (1.2 g/kg intraperitoneally);cannulae Were introduced into the trachea, jugular vein and the left carotid artery. The animals were artificially respirated by means of a positive pressure pump using oxygen-enriched air at a beat frequency of 80 per minute. A 3 to 4 cm abdominal incision was made and about 15 cm of a movable loop of the ileum was removed distally while maintaining the blood circulation. The proximal part was filled with a Krebs-Ringer solution and a pressure meter was introduced into the intestine using a Millar micro-tip catheter (PC-450, 5F). A glass tube was placed vertically in the abdomen and attached to the surrounding abdominal wall such that the animal served as its own organ bath when the glass tube was filled with Krebs-Ringer solution.
The glass tube was filled with Krebs-Ringer solution until the whole of the hypogastrium was immersed. The active agents to be tested were injected via the jugular vein; 5 minutes later contractions were produced by means of methacholine (20 μg/kg intraarterially). Dosage-activity graphs were obtained by plotting the percentage suppression of contractions produced by methacholine against the logarithm of dosage amount (mole/kg) of the active substance to be tested.
The results were given as average values (n=4 to 8) (see Table II).

Assay [8] concerns M receptors of the heart. In words: Acetylcholine antagonism in anaesthetised guinea pigs: inhibition of bradycardia. Type of assay: in vivo, guinea pig. The following applies: comparison, Tables I and III.
From the text: as §1, §3, §4, §5, §6

Seven molecules from patent US5179090A, “Condensed diazepinones and medicaments containing these compounds” (priority 1989, dated 1993) can be followed below.

In general, ED50 refers to the dose at which the effect has come halfway, by size or by number of responders. Usually Kb stands for the equilibrium dissociation constant of an antagonist, usually derived from a functional assay. A high value points to lower antagonist affinity.

As for `CN1CCC2C1CCN2C(=O)N1c2ccccc2NC(=O)c2cccnc21` (centres unmarked) [B], in assay [1], the “Ratio influence of bradycardia to bronchoconstriction” value (shortened to “Ratio influence of bradycardia”) was 44. The “selectivity for smooth muscle” value in assay [1] is recorded as “very marked smooth muscle selectivity”. Also, the ED50 was 0.0447 µmol/kg in assay [2], 0.813 µmol/kg in assay [3] and 1.95 µmol/kg at M receptors of the heart [4]. In addition, the antagonist dissociation constant (Kb) in assay [5] was found to be 145 nM; in assay [6] it was 60.3 nM. In assay [7], the “Selectivity KB heart to KB ileum” value is 2.4.
`CN1CCC2C1CCN2C(=O)N1c2ccccc2C(=O)Nc2cccnc21` (centres unmarked) [A]: the ED50 is 0.2 µmol/kg in the assay on saliva secretion; 0.049 µmol/kg in assay [2]; 0.49 µmol/kg in assay [3]; 1.05 µmol/kg at M receptors of the heart [4]; 0.117 µmol/kg in the assay on guinea pig ileum. In [1], the “Ratio influence of bradycardia” value stood at 21. Also, in assay [1], the “selectivity for smooth muscle” value was “very marked smooth muscle selectivity”. In the assay with guinea pig ileum, the “Ratio saliva secretion inhibition to spasmolytic activity” value (from here on “Ratio saliva secretion inhibition”) amounted to 2. In addition, the antagonist equilibrium constant (Kb) in assay [5] turned out to be 209 nM; in [6], 30.2 nM. The “Selectivity KB heart to KB ileum” value in assay [7] stood at 6.9.
In the case of `Cc1scc2c1N(C(=O)N1CC3CN(C)CC3C1)c1ccccc1NC2=O` (centres unmarked) [D], the “Ratio influence of bradycardia” value in assay [1] is listed as 8. The figures for the median effective dose (ED50) (in assay [2]; in assay [3]; at M receptors of the heart [4]) were 0.0891 µmol/kg, 1.58 µmol/kg and 0.741 µmol/kg, respectively.
As to `CN1CC2CN(C(=O)N3c4ccccc4C(=O)Nc4cccnc43)CC2C1` (centres unmarked) [C], the ED50 with saliva secretion is 2.95 µmol/kg; in assay [2] it was 0.631 µmol/kg; in assay [3], 3.02 µmol/kg; at M receptors of the heart [4], 4.79 µmol/kg; with guinea pig ileum it was 0.708 µmol/kg. Also, the “Ratio influence of bradycardia” value in assay [1] came to 8. In addition, the “Ratio saliva secretion inhibition” value with guinea pig ileum is on record as 4.
Take `CN1[C@@H]2CC[C@H]1CC(OC(=O)C(CO)c1ccccc1)C2` (some centres unmarked) [Z]: the ED50 in assay [2] is 0.00813 µmol/kg; in [3], 0.0525 µmol/kg; on M receptors of the heart [4], 0.0269 µmol/kg; in the assay on guinea pig ileum, 0.0525 µmol/kg.
Regarding `CN(C)CC1CCCCN1CC(=O)N1c2ccccc2C(=O)Nc2cccnc21` (centres unmarked) [X], the “Ratio influence of bradycardia” value in assay [1] was 0.5. In addition, the figures for the ED50 (in [2]; in assay [3]; at M receptors of the heart [4]) were 2.63 µmol/kg, 11.7 µmol/kg and 1.45 µmol/kg, respectively. The “effectiveness on cardiac muscarine receptors” value with M receptors of the heart [8] is on record as “higher effectiveness on cardiac muscarine receptors”. The Kb in assay [5] was 105 nM; in assay [6], 617 nM. Besides, the “Selectivity KB heart to KB ileum” value in assay [7] was found to be 0.17.
Regarding `CN1CCN(CC(=O)N2c3ccccc3C(=O)Nc3cccnc32)CC1` [Y], the ED50 is 0.38 µmol/kg in the assay on saliva secretion; 0.269 µmol/kg in [2]; 1.45 µmol/kg in assay [3]; 1.26 µmol/kg on M receptors of the heart [4]; 0.832 µmol/kg with guinea pig ileum. Besides, the “Ratio influence of bradycardia” value in assay [1] was determined as 5. For the same molecule, in [1], the “selectivity for smooth muscle” value is on record as “no selectivity”. Further, in the assay with guinea pig ileum, the “Ratio saliva secretion inhibition” value is reported as 0.5. Besides, the Kb in assay [5] is 123 nM; in [6], 194 nM. For the same molecule, the “Selectivity KB heart to KB ileum” value in [7] is on record as 0.63.
